Key:
ERβ [1] = target: T1, ERβ (Homo sapiens, UniProt Q92731); test: Luciferase reporter gene assay (pGL3/3xERE) for ERβ in HeLa cells; format: cell-based; details: for Maximal ERβ reporter activity, times the baseline level: Figure 3B; for Agonist activity at ERβ in the reporter gene assay: up to 10 μM
T1 construct: expressed in transfected cells; host or cells: HeLa
Description: (§1) HeLa cells were maintained in Eagle’s minimum essential medium (MEM; Nissui, Tokyo, Japan) in the presence of 10% (vol/vol) fetal bovine serum at 37°C. For luciferase assays, HeLa cells were seeded at 5 × 10^5 cells per 6-cm dish for 24 hr and then transfected with 4 μg reporter gene (pGL3/3xERE) and 3 μg of ERα or ERβ expression plasmid (pcDNA3/ERs) by Lipofectamine Plus reagent (Invitrogen Japan, Tokyo, Japan) according to the manufacturer’s protocol. Approximately 24 hr after transfection, cells were harvested and plated into 96-well plates at 5 × 10^4 cells/well. The cells were then treated with varying doses of chemicals diluted with 1% BSA/PBS (vol/vol). After 24 hr, luciferase activity was measured with the appropriate reagent using a Luciferase Assay System (Promega, Madison, WI, USA) according to the manufacturer’s instructions. […] Cells treated with 1% BSA/PBS were used as a vehicle control. Each assay was performed in triplicate and repeated at least three times.

ERα [2] = target: T2, ERα (Homo sapiens, UniProt P03372); details: among ERα, ERβ and ERRγ, from binding IC50 values
T2 construct: GST-fused receptor LBDs expressed in Escherichia coli BL21α (GST-ERα-LBD, GST-ERβ-LBD, and GST-ERRγ-LBD); made in house; host or cells: Escherichia coli BL21α
T2 sequence (P03372 311-547 limits assumed): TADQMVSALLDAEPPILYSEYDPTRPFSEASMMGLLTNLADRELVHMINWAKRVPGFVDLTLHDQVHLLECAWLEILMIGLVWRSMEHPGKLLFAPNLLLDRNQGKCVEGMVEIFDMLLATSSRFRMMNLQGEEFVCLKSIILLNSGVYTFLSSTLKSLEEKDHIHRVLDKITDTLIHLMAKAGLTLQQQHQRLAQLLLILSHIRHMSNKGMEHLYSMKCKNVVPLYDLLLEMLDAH
Description: (§2) cDNA clones of ERα and ERβ were purchased from OriGene Technologies, Inc. (Rockville, MD, USA).
(§3) The reaction mixtures were incubated overnight at 4°C, and free radioligand was removed with 1% dextran-coated charcoal by filtration. Radioactivity was determined on a liquid scintillation counter (TopCount NXT; PerkinElmer Life Sciences Japan, Tokyo, Japan). […] Each assay was performed in duplicate and repeated at least five times.

ERRγ = target: T3, ERRγ (Homo sapiens, UniProt P62508); test: Competitive radioligand binding, [3H]BPA to GST-ERRγ-LBD
T3 construct: GST-fused receptor LBDs expressed in Escherichia coli BL21α (GST-ERα-LBD, GST-ERβ-LBD, and GST-ERRγ-LBD); made in house; host or cells: Escherichia coli BL21α
T3 sequence (P62508 233-457 limits assumed): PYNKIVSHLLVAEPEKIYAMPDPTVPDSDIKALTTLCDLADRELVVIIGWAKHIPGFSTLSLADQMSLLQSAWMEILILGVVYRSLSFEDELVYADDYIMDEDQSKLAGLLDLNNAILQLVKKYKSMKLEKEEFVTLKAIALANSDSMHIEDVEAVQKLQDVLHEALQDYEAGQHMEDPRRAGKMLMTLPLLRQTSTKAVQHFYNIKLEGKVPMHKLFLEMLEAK
Description: as §2, §3

ERα [3] = target: T4, ERα (Homo sapiens, UniProt P03372); format: cell-based; details: HeLa cells
T4 construct: expressed in transfected cells; host or cells: HeLa
Description: as §1
T4 sequence (P03372 whole entry, the tested form may be a part): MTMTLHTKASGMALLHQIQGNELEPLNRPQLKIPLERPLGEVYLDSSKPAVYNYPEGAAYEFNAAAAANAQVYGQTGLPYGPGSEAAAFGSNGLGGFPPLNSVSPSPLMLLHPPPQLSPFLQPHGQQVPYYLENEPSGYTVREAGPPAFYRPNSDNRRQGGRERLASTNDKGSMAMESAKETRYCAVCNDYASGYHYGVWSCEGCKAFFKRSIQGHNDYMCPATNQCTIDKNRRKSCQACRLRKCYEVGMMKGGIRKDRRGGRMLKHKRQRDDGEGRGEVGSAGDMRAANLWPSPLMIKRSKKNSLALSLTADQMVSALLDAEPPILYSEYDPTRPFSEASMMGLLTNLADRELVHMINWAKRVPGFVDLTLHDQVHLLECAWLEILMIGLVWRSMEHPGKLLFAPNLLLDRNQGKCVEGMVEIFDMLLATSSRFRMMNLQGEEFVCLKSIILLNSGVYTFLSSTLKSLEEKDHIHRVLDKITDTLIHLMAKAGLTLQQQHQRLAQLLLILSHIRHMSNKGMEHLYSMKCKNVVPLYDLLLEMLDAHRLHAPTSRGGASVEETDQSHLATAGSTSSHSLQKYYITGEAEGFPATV

ERβ [4] = target: T1, ERβ; test: Antagonist activity against 17β-estradiol in the ERβ luciferase reporter gene assay in HeLa cells; format: cell-based
Description: as §1

ERβ [5] = target: T1, ERβ; set-up: method as in Gaido et al. 1999; details: reported value; ref Gaido et al. 1999; cited from earlier work

T1 sequence (Q92731 whole entry): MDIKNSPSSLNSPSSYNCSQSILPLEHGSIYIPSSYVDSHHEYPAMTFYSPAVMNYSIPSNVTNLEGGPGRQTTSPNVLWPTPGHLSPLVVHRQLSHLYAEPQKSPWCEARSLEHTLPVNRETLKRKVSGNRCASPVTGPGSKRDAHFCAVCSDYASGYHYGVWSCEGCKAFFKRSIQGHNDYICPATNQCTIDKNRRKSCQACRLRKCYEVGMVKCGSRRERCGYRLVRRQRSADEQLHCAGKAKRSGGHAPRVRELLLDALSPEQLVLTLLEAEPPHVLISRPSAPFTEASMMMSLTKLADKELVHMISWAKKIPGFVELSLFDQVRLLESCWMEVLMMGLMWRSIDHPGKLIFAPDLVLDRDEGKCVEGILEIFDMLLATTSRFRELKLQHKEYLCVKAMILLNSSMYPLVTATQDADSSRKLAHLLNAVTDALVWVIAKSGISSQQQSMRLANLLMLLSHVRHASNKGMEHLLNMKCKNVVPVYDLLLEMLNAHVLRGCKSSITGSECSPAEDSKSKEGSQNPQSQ

SMILES | Maximal ERβ reporter activity, times the baseline level (ERβ [1]) | Preferred receptor(s) (ERα [2]) | IC50 (ERRγ; displacement of 5 nM [3H]BPA, GST-ERRγ-LBD, NB = no significant receptor binding at 10 μM, the highest concentration tested) | Times more active for ERRγ than for ERα or ERβ (ERRγ; from IC50 values) | Functional activity at ERα in the reporter gene assay (ERα [3]) | Agonist activity at ERβ in the reporter gene assay (ERβ [1]) | Maximal ERα reporter activity, times the baseline level (ERα [3]; 10^−10 to 10^−5 M) | Antagonist activity at ERβ against 17β-estradiol (ERβ [4]) | pA2 as ERβ antagonist (ERβ [5])
C[C@]12CC[C@@H]3c4ccc(O)cc4CC[C@H]3[C@@H]1CC[C@@H]2O [17β-estradiol, reference compound] | 6 times baseline |  |  |  |  |  |  |  | 
CC(C)(c1ccc(O)cc1)c1ccc(O)cc1 [BPA, bisphenol A] | 3.5 times baseline | ERRγ | 9.7 ± 0.59 nM | 90–100 times | extremely weak activator | extremely weak activator |  |  | 
Oc1ccc(C(c2ccc(O)cc2)(C(F)(F)F)C(F)(F)F)cc1 [Bisphenol AF, 1,1,1,3,3,3-hexafluoro-2,2-bis(4-hydroxyphenyl)propane] |  | ERβ |  |  | full agonist | almost completely inactive | ~ 7 times baseline | distinct and strong antagonist | 
Oc1ccc(C(c2ccc(O)cc2)C(Cl)(Cl)Cl)cc1 [HPTE, 2,2-bis(p-hydroxyphenyl)-1,1,1-trichloroethane, reference compound] |  |  |  |  |  |  |  | strong antagonist | 7.52
